Test results: publication PMC10901349, “Enzymatic properties of UDP-glycosyltransferase 89B1 from radish and modulation of enzyme catalytic activity via loop region mutation” (PLOS ONE, 2024)
Like-named read-outs stand apart in the source and are kept apart here.

Biological target: T1, Rs89B1 (Raphanus sativus, UniProt A0A6J0K544)
T1 construct: gene LOC108814497; full-length CDS, C-terminal 6xHis tag (kept), expressed in Schizosaccharomyces pombe TN4, HisTrap purified; start MTVNEENT (from primer)
Assay: HPLC glucosyltransferase assay, initial rates, curve fitting
Type: biochemical
Conditions: co-substrate UDP-glucose (5.0 mM in basic mix), sodium phosphate pH 7.0, 30°C
Text: HPLC glucosyltransferase assay, initial rates, curve fitting on Rs89B1

T1 sequence (A0A6J0K544 entry or part of it): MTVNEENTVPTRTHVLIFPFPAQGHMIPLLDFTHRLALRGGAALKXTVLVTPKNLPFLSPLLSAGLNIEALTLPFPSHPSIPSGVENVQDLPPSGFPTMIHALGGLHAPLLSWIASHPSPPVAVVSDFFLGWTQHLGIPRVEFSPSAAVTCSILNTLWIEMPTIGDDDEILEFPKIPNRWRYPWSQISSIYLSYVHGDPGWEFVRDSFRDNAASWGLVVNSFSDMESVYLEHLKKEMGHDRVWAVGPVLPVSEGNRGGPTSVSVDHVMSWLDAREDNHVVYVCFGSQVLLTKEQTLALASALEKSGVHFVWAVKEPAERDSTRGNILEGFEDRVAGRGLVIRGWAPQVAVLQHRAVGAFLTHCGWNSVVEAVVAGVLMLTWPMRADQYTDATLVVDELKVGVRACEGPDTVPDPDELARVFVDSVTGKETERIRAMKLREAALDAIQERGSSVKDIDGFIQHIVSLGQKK

Row | Compound | Km [µM] | Km (read-out: Rs89B1_ins / Km) [µM]
1 | O=C(O)c1cc(O)ccc1O [2,5-DHBA] | 773.8 ± 1.6 | 663.2 ± 2.3
2 | O=C(O)c1ccc(O)c(O)c1O [2,3,4-THBA, 2,3,4-trihydroxy benzoic acid] | 138 ± 2 | 128 ± 4.5
3 | O=C(O)c1c(O)cc(O)cc1O [2,4,6-THBA] | 198 ± 7.2 | 688 ± 14.6
4 | O=C(O)c1ccc(O)cc1 [4-HBA] | 233 ± 12.2 | 251 ± 15.4
5 | O=C(O)c1ccc(O)cc1O [2,4-DHBA] | 182 ± 4.2 | 212 ± 5.8
